In patent US20230002359A1, “PESTICIDALLY ACTIVE FUSED BICYCLIC HETEROAROMATIC COMPOUNDS” (priority 2019, published 2023):

How the values were obtained:
Type in all cases: in vivo
[1] = system: Plutella xylostella (Diamond Back Moth); assay: Example B4: Plutella xylostella (diamond back moth), artificial diet, eggs, 24-well; details: 192 h, application rate of 200 ppm, 8 days after infestation, eggs, read-out: control in at least one of the two categories (mortality or growth inhibition)
Method: 24-well microtiter plates with artificial diet were treated with aqueous test solutions prepared from 10′000 ppm DMSO stock solutions by pipetting. After drying, Plutella eggs were pipetted through a plastic stencil onto a gel blotting paper and the plate was closed with it. The samples were assessed for mortality and growth inhibition in comparison to untreated samples 8 days after infestation.

[2] = system: Chilo suppressalis (Striped Rice Stemborer); assay: Example B3: Chilo suppressalis (striped rice stemborer), artificial diet, L2 larvae; details: 144 h, application rate of 200 ppm, 6 days after infestation, L2 larvae, read-out: control in at least one of the three categories (mortality, anti-feedant effect, or growth inhibition)
Method in brief: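 Diet-incorporation surface assay: aqueous dilutions of 10'000 ppm DMSO stock applied to artificial diet, dried; 6-8 L2 larvae/well; read day 6 post-infestation for mortality, antifeedant effect, growth inhibition vs untreated. Active if any category above untreated.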

[3] = system: Euschistus heros (Neotropical Brown Stink Bug); assay: Example B2: Euschistus heros (neotropical brown stink bug), soybean leaves sprayed, N2 nymphs; details: 120 h, application rate of 200 ppm, 5 days after infestation, N2 nymphs, read-out: control in at least one of the two categories (mortality or growth inhibition)
Method: Soybean leaves on agar in 24-well microtiter plates were sprayed with aqueous test solutions prepared from 10′000 ppm DMSO stock solutions. After drying the leaves were infested with N2 nymphs. The samples were assessed for mortality and growth inhibition in comparison to untreated samples 5 days after infestation.

[4] = system: Myzus persicae (Green Peach Aphid); assay: Example B6: Myzus persicae (green peach aphid) intrinsic activity, sucrose solution; details: 120 h, test rate of 12 ppm, 5 days after infestation, intrinsic activity, read-out: mortality
Method in brief: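 Compounds from 10′000 ppm DMSO stocks were mixed into sucrose solution in 24-well plates sealed with Parafilm. Aphid-infested pea seedlings were set on the membrane and the plate inverted so aphids fed through it. Mortality scored 5 days after infestation.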

[5] = system: Myzus persicae (Green Peach Aphid); assay: Example B5: Myzus persicae (green peach aphid) feeding/contact activity, sunflower leaf discs; details: foliar, 144 h, application rate of 200 ppm, 6 days after infestation
Method: Sunflower leaf discs were placed onto agar in a 24-well microtiter plate and sprayed with aqueous test solutions prepared from 10′000 ppm DMSO stock solutions. After drying, the leaf discs were infested with an aphid population of mixed ages. The samples were assessed for mortality 6 days after infestation.

[6] = system: Spodoptera littoralis (Egyptian Cotton Leaf Worm); assay: Example B7: Spodoptera littoralis (Egyptian cotton leaf worm), cotton leaf discs sprayed, L1 larvae; details: foliar, 72 h, application rate of 200 ppm, 3 days after infestation, L1 larvae, read-out: control in at least one of the three categories (mortality, anti-feedant effect, or growth inhibition)
Method in brief: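 Leaf discs on agar; spray, aqueous dilution of 10′000 ppm DMSO stock; dry; 5 L1 larvae/disc. Read at 3 d post-infestation: mortality, antifeedant, growth inhibition vs untreated. Control = ≥1 category above untreated.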

[7] = system: Diabrotica Balteata (Corn Root Worm); assay: Example B1: Diabrotica balteata (corn root worm), maize sprouts sprayed, L2 larvae; details: 96 h, application rate of 200 ppm, 4 days after infestation, L2 larvae, read-out: control in at least one of the two categories (mortality or growth inhibition)
Method in brief: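 Maize sprouts on agar were sprayed with aqueous test solutions made from 10′000 ppm DMSO stocks, dried, then infested with 6 to 10 L2 larvae per well. Mortality and growth inhibition were scored against untreated samples 4 days after infestation.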

C[C@H](Nc1ncnc2c(C(F)(F)F)cc(C(F)(F)F)cc12)c1ncnn1-c1ncccn1 [P.1, N-[(1S)-1-(2-pyrimidin-2-yl-1,2,4-triazol-3-yl)ethyl]-6,8-bis(trifluoromethyl)quina-zolin-4-amine]
≥ 80%: percent control (mortality or growth inhibition) at 200 ppm [1] | percent control (mortality, anti-feedant effect or growth inhibition) at 200 ppm [2] | percent control (mortality or growth inhibition) at 200 ppm [3] | mortality at 12 ppm [4] | mortality at 200 ppm [5] | percent control (mortality, anti-feedant effect or growth inhibition) at 200 ppm [6] | percent control (mortality or growth inhibition) at 200 ppm [7]

CCN(c1ncnc2c(C(F)(F)F)cc(C(F)(F)F)cc12)C(C)c1ncnn1-c1ccc(C#N)cn1 (centres unmarked) [P.6, 6-[5-[1-[[6,8-bis(trifluoromethyl)quina-zolin-4-yl]-ethyl-amino]ethyl]-1,2,4-triazol-1-yl]pyridine-3-carbonitrile]
≥ 80%: percent control (mortality or growth inhibition) at 200 ppm [1] | percent control (mortality, anti-feedant effect or growth inhibition) at 200 ppm [2] | percent control (mortality or growth inhibition) at 200 ppm [3] | mortality at 12 ppm [4] | mortality at 200 ppm [5] | percent control (mortality, anti-feedant effect or growth inhibition) at 200 ppm [6] | percent control (mortality or growth inhibition) at 200 ppm [7]

C[C@@H](c1ncnn1-c1ccc(C#N)cn1)N(C)c1ncnc2c(C(F)(F)F)cc(Cl)cc12 [P.21, 6-[5-[(1S)-1-[[6-chloro-8-(trifluoromethyl)quinazolin-4-yl]-methyl-amino]ethyl]-1,2,4-triazol-1-yl]pyridine-3-carbonitrile]
≥ 80%: percent control (mortality or growth inhibition) at 200 ppm [1] | percent control (mortality, anti-feedant effect or growth inhibition) at 200 ppm [2] | percent control (mortality or growth inhibition) at 200 ppm [3] | mortality at 12 ppm [4] | mortality at 200 ppm [5] | percent control (mortality, anti-feedant effect or growth inhibition) at 200 ppm [6] | percent control (mortality or growth inhibition) at 200 ppm [7]

C[C@@H](c1ncnn1-c1ncccn1)N(C)c1ncnc2c(C(F)(F)F)cc(Cl)cc12 [P.23, 6-chloro-N-methyl-N-[(1S)-1-(2-pyrimidin-2-yl-1,2,4-triazol-3-yl)ethyl]-8-(trifluoromethyl)quinazolin-4-amine]
≥ 80%: percent control (mortality or growth inhibition) at 200 ppm [1] | percent control (mortality, anti-feedant effect or growth inhibition) at 200 ppm [2] | percent control (mortality or growth inhibition) at 200 ppm [3] | mortality at 12 ppm [4] | mortality at 200 ppm [5] | percent control (mortality, anti-feedant effect or growth inhibition) at 200 ppm [6] | percent control (mortality or growth inhibition) at 200 ppm [7]

C[C@@H](c1ncnn1-c1ncccn1)N(C)c1ncnc2c(C(F)(F)F)cc(C(F)(F)F)cc12 [P.26, N-methyl-N-[(1S)-1-(2-pyrimidin-2-yl-1,2,4-triazol-3-yl)ethyl]-6,8-bis(trifluoromethyl)quina-zolin-4-amine]
≥ 80%: percent control (mortality or growth inhibition) at 200 ppm [1] | percent control (mortality, anti-feedant effect or growth inhibition) at 200 ppm [2] | percent control (mortality or growth inhibition) at 200 ppm [3] | mortality at 12 ppm [4] | mortality at 200 ppm [5] | percent control (mortality, anti-feedant effect or growth inhibition) at 200 ppm [6] | percent control (mortality or growth inhibition) at 200 ppm [7]

CC(c1ncnn1-c1ncccn1)N(C)c1ncnc2c(C(F)(F)F)cc(C(F)(F)F)cc12 (centres unmarked) [P.27, N-methyl-N-[1-(2-pyrimidin-2-yl-1,2,4-triazol-3-yl)ethyl]-6,8-bis(trifluoromethyl)quinazolin-4-amine]
≥ 80%: percent control (mortality or growth inhibition) at 200 ppm [1] | percent control (mortality, anti-feedant effect or growth inhibition) at 200 ppm [2] | percent control (mortality or growth inhibition) at 200 ppm [3] | mortality at 12 ppm [4] | mortality at 200 ppm [5] | percent control (mortality, anti-feedant effect or growth inhibition) at 200 ppm [6] | percent control (mortality or growth inhibition) at 200 ppm [7]

CC(c1ncnn1-c1ccc(C#N)cn1)N(C)c1ncnc2c(C(F)(F)F)cc(C(F)(F)F)cc12 (centres unmarked) [P.28, 6-[5-[1-[[6,8-bis(trifluoromethyl)quina-zolin-4-yl]-methyl-amino]ethyl]-1,2,4-triazol-1-yl]pyridine-3-carbonitrile]
≥ 80%: percent control (mortality or growth inhibition) at 200 ppm [1] | percent control (mortality, anti-feedant effect or growth inhibition) at 200 ppm [2] | percent control (mortality or growth inhibition) at 200 ppm [3] | mortality at 12 ppm [4] | mortality at 200 ppm [5] | percent control (mortality, anti-feedant effect or growth inhibition) at 200 ppm [6] | percent control (mortality or growth inhibition) at 200 ppm [7]

C[C@@H](c1ncnn1-c1ccc(C#N)cn1)N(C)c1ncnc2c(C(F)(F)F)cc(C(F)(F)F)cc12 [P.54, 6-[5-[(1S)-1-[[6,8-bis(trifluoromethyl)quina-zolin-4-yl]-methyl-amino]ethyl]-1,2,4-triazol-1-yl]pyridine-3-carbonitrile]
≥ 80%: percent control (mortality or growth inhibition) at 200 ppm [1] | percent control (mortality, anti-feedant effect or growth inhibition) at 200 ppm [2] | percent control (mortality or growth inhibition) at 200 ppm [3] | mortality at 12 ppm [4] | mortality at 200 ppm [5] | percent control (mortality, anti-feedant effect or growth inhibition) at 200 ppm [6] | percent control (mortality or growth inhibition) at 200 ppm [7]

C[C@@H](c1ncnn1-c1ncccn1)N(C)c1ncnc2c(OC(F)F)cc(Cl)cc12 [P.90, 6-chloro-8-(difluoromethoxy)-N-methyl-N-[(1S)-1-(2-pyrimidin-2-yl-1,2,4-triazol-3-yl)ethyl]quinazolin-4-amine]
≥ 80%: percent control (mortality or growth inhibition) at 200 ppm [1] | percent control (mortality, anti-feedant effect or growth inhibition) at 200 ppm [2] | percent control (mortality or growth inhibition) at 200 ppm [3] | mortality at 12 ppm [4] | mortality at 200 ppm [5] | percent control (mortality or growth inhibition) at 200 ppm [7]

CC(c1ncnn1-c1ccc(F)cn1)N(C)c1ncnc2c(C(F)(F)F)cc(Cl)cc12 (centres unmarked) [P.187, 6-chloro-N-[1-[2-(5-fluoro-2-pyridyl)-1,2,4-triazol-3-yl]ethyl]-N-methyl-8-(trifluoromethyl)quinazolin-4-amine]
≥ 80%: percent control (mortality or growth inhibition) at 200 ppm [1] | percent control (mortality, anti-feedant effect or growth inhibition) at 200 ppm [2] | percent control (mortality or growth inhibition) at 200 ppm [3] | mortality at 12 ppm [4] | mortality at 200 ppm [5] | percent control (mortality or growth inhibition) at 200 ppm [7]

CC(c1ncnn1-c1ccc(F)cn1)N(C)c1ncnc2c(C(F)(F)F)cc(Br)cc12 (centres unmarked) [P.188, 6-bromo-N-[1-[2-(5-fluoro-2-pyridyl)-1,2,4-triazol-3-yl]ethyl]-N-methyl-8-(trifluoromethyl)quinazolin-4-amine]
≥ 80%: percent control (mortality or growth inhibition) at 200 ppm [1] | percent control (mortality, anti-feedant effect or growth inhibition) at 200 ppm [2] | percent control (mortality or growth inhibition) at 200 ppm [3] | mortality at 12 ppm [4] | mortality at 200 ppm [5] | percent control (mortality or growth inhibition) at 200 ppm [7]

C[C@@H](c1ncnn1-c1ccc(C(N)=S)cn1)N(C)c1ncnc2c(C(F)(F)F)cc(C(F)(F)F)cc12 [P.190, 6-[5-[(1S)-1-[[6,8-bis(trifluoromethyl)quinazolin-4-yl]-methyl-amino]ethyl]-1,2,4-triazol-1-yl]pyridine-3-carbothioamide]
≥ 80%: percent control (mortality or growth inhibition) at 200 ppm [1] | percent control (mortality, anti-feedant effect or growth inhibition) at 200 ppm [2] | percent control (mortality or growth inhibition) at 200 ppm [3] | mortality at 12 ppm [4] | mortality at 200 ppm [5] | percent control (mortality or growth inhibition) at 200 ppm [7]

C[C@@H](c1ncnn1-c1ccc(C(N)=S)cn1)N(C)c1ncnc2c(C(F)(F)F)cc(Cl)cc12 [P.191, 6-[5-[(1S)-1-[[6-chloro-8-(trifluoromethyl)quinazolin-4-yl]-methyl-amino]ethyl]-1,2,4-triazol-1-yl]pyridine-3-carbothioamide]
≥ 80%: percent control (mortality or growth inhibition) at 200 ppm [1] | percent control (mortality, anti-feedant effect or growth inhibition) at 200 ppm [2] | percent control (mortality or growth inhibition) at 200 ppm [3] | mortality at 12 ppm [4] | mortality at 200 ppm [5] | percent control (mortality or growth inhibition) at 200 ppm [7]

CC(c1ncnn1-c1ncccn1)N(C)c1ncnc2c(Br)cc(Br)cc12 (centres unmarked) [P.258, 6,8-dibromo-N-methyl-N-[1-(2-pyrimidin-2-yl-1,2,4-triazol-3-yl)ethyl]quinazolin-4-amine]
≥ 80%: percent control (mortality or growth inhibition) at 200 ppm [1] | percent control (mortality, anti-feedant effect or growth inhibition) at 200 ppm [2] | mortality at 12 ppm [4] | mortality at 200 ppm [5] | percent control (mortality, anti-feedant effect or growth inhibition) at 200 ppm [6] | percent control (mortality or growth inhibition) at 200 ppm [7]
